Where two headings read alike, the source gives them in different places.

Data set [1] is described as follows: relative lipophylia (RM) by reverse phase thin layer chromatography. In kind it is physicochemical. The settings on record: rp-tlc, acetone/water 2:1. Here is the method: The lipophylic character of the synthesized compounds was evaluated with reverse phase, thin layer chromatography.
The non-polar stationary phase is represented by plates of Merck 60 F254 silanized silica gel, whereas the polar phase consists of an acetone/water mixture (2:1).
The compounds were solubilized in chloroform (3 mg/ml).
The RM values were calculated from the average experimental values of RF, obtained from three chromatograms using the formula: […]
Higher values of RM corresponding to lower values of RF indicate more lipophylic compounds.

Another data set relates to HIV. In words: HIV-induced cytopathogenicity in human T4-lymphocyte cell line (CEM). The settings on record: for EC50: Human immunodeficiency virus 1, CCRF-CEM, read-out: EC50 (50% reduction of the viral cytopathic effect); for TI50 (therapeutic index): IC50/EC50 ratio. The class given is cell-based. As to the method: (§1) For their effects on HIV-induced cytopathogenicity in human T4 -lymphocyte cell line (CEM), the compounds of the present invention were evaluated according to NIH procedures as described by R. Vince et al., Biochem. Biophys.Res.Comm., 156, 1046, 1988 and by O. S. Weislow et al. J. Natl.Canc. Inst., 81. 577,1988.
It was possible to evaluate for many compounds of the invention:
a) the effective concentration 50% (EC50), which represents the concentration of the tested compound resulting in 50% reduction of the viral cytopathic effect.
c) the therapeutic index TI50 which is determined as the IC50 /EC50 ratio.
Only substances able to cause at least a 50% or greater reduction of viral cytopathic effect are kept in consideration for further investigation.
(§2) The methods, the test conditions, the evaluation criteria of the anti-HIV activity in vitro are described by Weislow, O. W., Kieser, R., Fine, D., Bader, J., Shoemaker, R. H., Boyd, M. R.: New soluble-formazan assay for HIV-1 cytopathic effects: application to high-flux screening of synthetic and natural products for AIDS-antiviral activity. J. Nati, Cancer Inst. 81:577-586,1989.

In data set [2] the test system is human T4-lymphocyte cell line (CEM). In words: growth inhibition of normal uninfected cells (CEM). The conditions noted are these: CCRF-CEM, read-out: IC50 (toxic concentration, 50% growth inhibition of normal uninfected cells). The class given is cell-based. Here is the method: as §1
b) the inhibitory concentration 50% (IC50) which represents the toxic concentration of drug resulting in 50% growth inhibition of normal uninfected cells.
as §2

Where [3] appears, read: silanized silica gel Merck 60 F254 plates, average of three chromatograms, read-out: RM (relative lipophylia).

Take `Clc1ccc(C2SCc3nc4ccccc4n32)cc1Cl` (stereo not shown) [XXVII]: the chromatographic logP in data set [1] was -0.362.
As to `Fc1ccc(C2SCc3nc4ccccc4n32)cc1` (stereo not shown) [VI], the chromatographic logP in data set [1] is -0.412.
For `Clc1ccc(C2SCc3nc4ccccc4n32)cc1` (stereo not shown) [IX], the chromatographic logP in data set [1] is -0.402.
Regarding `FC(F)(F)c1ccccc1C1SCc2nc3ccccc3n21` (stereo not shown) [XIV], in data set [1], the chromatographic logP is -0.349.
Turning to `Oc1cccc(C2SCc3nc4ccccc4n32)c1` (stereo not shown) [XVII], the chromatographic logP in data set [1] was -0.591. For the same molecule, the EC50 in the data set with HIV (HIV-infected CEM cells) amounted to 114 µM. In addition, the “TI50 (therapeutic index)” value in the data set with HIV came to 1.11. Besides, the IC50 in data set [2] (uninfected CEM cells) came to 127 µM.
As for `FC(F)(F)c1cccc(C2SCc3nc4ccccc4n32)c1` (stereo not shown) [XV], the chromatographic logP in data set [1] was -0.378.
For `Clc1cccc(Cl)c1C1SCc2nc3ccccc3n21` (racemic) [XXVI, (±) 1-(2,6-dichlorophenyl)-1H,3H-thiazole [3,4-a] benzimidazole], in data set [1], the chromatographic logP was -0.402. The concentration for a half-maximal effect (EC50) in the data set with HIV (HIV-infected CEM cells) came to 0.257 µM. For the same molecule, the “TI50 (therapeutic index)” value in the data set on HIV worked out at 86.8. Moreover, the IC50 in data set [2] (uninfected CEM cells) is 22.3 µM.
As to `Fc1cccc(C2SCc3nc4ccccc4n32)c1` (racemic) [V, (±) 1-(3-fluorophenyl)-1H,3H-thiazole [3,4-a] benzimidazole], the chromatographic logP in data set [1] is -0.434. Moreover, the EC50 with HIV (HIV-infected CEM cells) was determined as 5.74 µM. The “TI50 (therapeutic index)” value in the data set with HIV is recorded as 11.8. The IC50 in data set [2] (uninfected CEM cells) was 67.4 µM.
Regarding `Fc1ccc(C2SCc3nc4ccccc4n32)cc1F` (stereo not shown) [XXIII], the chromatographic logP in data set [1] was -0.43.
`Fc1ccccc1C1SCc2nc3ccccc3n21` (racemic) [IV, (±) 1-(2-fluorophenyl)-1H,3H-thiazole [3,4-a] benzimidazole]: the chromatographic logP in data set [1] was -0.468. The half-maximal effective concentration (EC50) in the data set with HIV (HIV-infected CEM cells) was 7.63 µM. Also, the “TI50 (therapeutic index)” value in the data set with HIV is on record as > 16.5. Moreover, in data set [2] (uninfected CEM cells), the IC50 was > 126 µM.
Turning to `O=[N+]([O-])c1ccc(Cl)cc1C1SCc2nc3ccccc3n21` (racemic) [XXXII, (±) 1-(2-nitro-5-chlorophenyl)-1H,3H-thiazole [3,4-a] benzimidazole], the chromatographic logP in data set [1] was -0.387.
Still for that read-out and setting: next, `COc1cccc(C2SCc3nc4ccccc4n32)c1` (stereo not shown) [XII]: -0.436; `FC(F)(F)c1ccc(C2SCc3nc4ccccc4n32)cc1` (stereo not shown) [XVI]: -0.387.
On to `Clc1ccc(C2SCc3nc4ccccc4n32)c(Cl)c1` (stereo not shown) [XXV], for which the chromatographic logP in data set [1] was -0.329.
For the molecule `Fc1cccc(Cl)c1C1SCc2nc3ccccc3n21` (racemic) [XXIX, (±) 1-(2-chloro-6-fluorophenyl)-1H,3H-thiazole [3,4-a] benzimidazole], the chromatographic logP in data set [1] is -0.452. Besides, in the data set with HIV (HIV-infected CEM cells), the 50% effective concentration (EC50) came out at 0.596 µM. Further, the “TI50 (therapeutic index)” value in the data set with HIV was 32.8. The IC50 in data set [2] (uninfected CEM cells) stood at 19.6 µM.
As to `Cc1cccc(C2SCc3nc4ccccc4n32)c1` (stereo not shown) [XI], in data set [1], the chromatographic logP was -0.399.
On the same count and under the same terms, next, `Fc1cccc(C2SCc3nc4ccccc4n32)c1F` (stereo not shown) [XIX]: -0.452.
For the molecule `Brc1ccccc1C1SCc2nc3ccccc3n21` (stereo not shown) [I], the chromatographic logP in data set [1] is -0.41.
For the molecule `O=[N+]([O-])c1ccccc1C1SCc2nc3ccccc3n21` (stereo not shown) [XXXVI, 1-(2-nitro-phenyl)-1H,3H-thiazole [3,4-a] benzimidazole], in the data set with HIV (HIV-infected CEM cells), the EC50 worked out at 17.2 µM. The “TI50 (therapeutic index)” value in the data set with HIV is listed as 2.16. Further, the IC50 in data set [2] (uninfected CEM cells) came out at 37.2 µM.
On to `O=[N+]([O-])c1cc(C2SCc3nc4ccccc4n32)ccc1Cl` (stereo not shown) [XXXI], for which the chromatographic logP in data set [1] was -0.414.
For the molecule `COc1ccc(C2SCc3nc4ccccc4n32)cc1` (stereo not shown) [XIII], the chromatographic logP in data set [1] is -0.477.
With `Cc1ccccc1C1SCc2nc3ccccc3n21` (stereo not shown) [X], in data set [1], the chromatographic logP is -0.452.
Turning to `N#Cc1cccc(C2SCc3nc4ccccc4n32)c1` (stereo not shown) [XXXIII, 1-(3-cyano-phenyl)-1H,3H-thiazole [3,4-a] benzimidazole], the EC50 with HIV (HIV-infected CEM cells) was 2.94 µM. In addition, in the data set with HIV, the “TI50 (therapeutic index)” value is given as 13.1. Moreover, in data set [2] (uninfected CEM cells), the IC50 stood at 38.3 µM.
For `Clc1cccc(C2SCc3nc4ccccc4n32)c1` (stereo not shown) [VIII], the chromatographic logP in data set [1] is -0.428.
For the molecule `N#Cc1ccc(C2SCc3nc4ccccc4n32)cc1` (stereo not shown) [XVIII], the chromatographic logP in data set [1] is -0.506.
Take `Brc1ccc(C2SCc3nc4ccccc4n32)cc1` (stereo not shown) [III]: the chromatographic logP in data set [1] is -0.43.
Regarding `Clc1cc(Cl)cc(C2SCc3nc4ccccc4n32)c1` (stereo not shown) [XXVIII], the chromatographic logP in data set [1] (setting [3]) was -0.337.
`Fc1cccc(F)c1C1SCc2nc3ccccc3n21` (racemic) [XXII, (±) 1-(2,6-difluorophenyl)-1H,3H-thiazole [3,4-a] benzimidazole]: the chromatographic logP in data set [1] (setting [3]) was -0.475. In the data set with HIV, the 50% effective concentration (EC50) was found to be 1 µM and the “TI50 (therapeutic index)” value was determined as 80. The IC50 in data set [2] is 80 µM.
With `Clc1cccc(C2SCc3nc4ccccc4n32)c1Cl` (stereo not shown) [XXIV], the chromatographic logP in data set [1] is -0.355.
Take `Clc1ccccc1C1SCc2nc3ccccc3n21` (stereo not shown) [VII]: the chromatographic logP in data set [1] was -0.393.
`Fc1ccc(C2SCc3nc4ccccc4n32)c(F)c1` (stereo not shown) [XX]: the chromatographic logP in data set [1] is -0.452.
On the same count and under the same terms, next, `Brc1cccc(C2SCc3nc4ccccc4n32)c1` (stereo not shown) [II]: -0.406.
Turning to `O=[N+]([O-])c1ccc(Cl)c(C2SCc3nc4ccccc4n32)c1` (stereo not shown) [XXX], in data set [1], the chromatographic logP was -0.423. The EC50 in the data set with HIV (HIV-infected CEM cells) was found to be 15.9 µM. Further, the “TI50 (therapeutic index)” value in the data set with HIV is listed as > 3.42. The IC50 in data set [2] (uninfected CEM cells) is > 54.4 µM.
